In patent publication US20220080016A1, “Antioxidant, Antibacterial Or Anti-Inflammatory Pharmaceutical Composition Containing Scutellaria Baicalensis Extract And Magnolia Officinalis Extract As Active Ingredients” (Genogen Co.,Ltd., priority 2020, published 2022):
≈ marks a conversion by molar mass, not a printed value.

Test: DPPH radical scavenging assay
Format: biochemical
Conditions: DPPH radical scavenging activity in 30 minutes
Protocol: FIGS. 4A through 4D show lipid peroxidation and DPPH (1,1-diphenyl-2-picrylhydrazyl) analysis result which were obtained by measuring the antioxidant activity of Comparative Example 1 (SBR), Comparative Example 2 (MOB) and Present Example 1 (GenoTX-407). […] As shown in the upper left graph of FIG. 4, after exposure to FeCl3 (50 μM), TBARS (thiobarbituric acid reactive substances) level increased (74%).

O=C1O[C@H]([C@@H](O)CO)C(O)=C1O [ascorbic acid]
EC50, DPPH: 14.38 µg/mL (≈ 81.6 µM)
